According to US20180290964A1, “CRYSTALLINE SOLID FORMS OF THE ACETATE SALT OF (1S,3S,4R)-4-((3AS,4R,5S,7AS)-4-(AMINOMETHYL)-7A-METHYL-1-METHYLENEOCTAHYDRO-1H-INDEN-5-YL)-3-(HYDROXYMETHYL)-4-METHYLCYCLOHEXANOL” (Aquinox Pharmaceuticals (Canada) Inc., priority 2015, published 2018):
“Also recorded” adds a separate entry of the source.

Columns and labels:
[1] = Handling in the presence of water (Example 8, methanol/water 60/40), form checked by XRPD; format: physicochemical; conditions: handled in the presence of water, 40% water (Example 8)
Experimental: 20.0 mg of amorphous Compound 1 was solid dosed in a 1.8 mL vial and 100 μL of a methanol/water mixture (60/40 (v/v)) was added at ambient temperature. The solution was subjected to a temperature profile of heating and cooling between 50° C. and 5° C. for three cycles, each heating cycle was at 10° C./hr while the cooling cycles were at −20° C./hr, −10° C./hr and −5° C./hr, for each cycle, respectively, finishing at ambient temperature. During the entire experiment the mixture was stirred at 30 rpm using a magnetic stirrer and a TEFLON®-coated magnetic stirring bar with dimensions 7mm in length and 2 mm in width.
Upon completion of the thermo-profile, the solid was collected by centrifugation (3000 rpm for 10 minutes) followed by solvent mixture removal by Pasteur pipette and dried under ambient conditions for one hour, before being analyzed by XRPD.

[2] = Accelerated aging analysis by XRPD (Method J); format: physicochemical; conditions: 40° C. and 75% relative humidity for 48 hours (2 days)
Experimental: Samples collected from the crystallization conditions were subjected, as is, to accelerated aging conditions of 40° C. and 75% relative humidity for 48 hours, via standard methods and analyzed by XRPD.
Dry solid samples from Examples 1 and 2, were transferred into a boron-glass capillary with 0.3 mm outer diameter. The capillary was mounted on the goniometer head and placed in the D8 Advance Bruker-AXS Diffractometer equipped with solid state LynxEye detector. The capillary was spinning during data recording, at 15 rpm. The XRPD platform was calibrated using Silver Behenate for the long d-spacings and Corundum for the short d spacings.
Data collection for Compound 1 Form A and Compound 1 Form B, were carried out, in transmission mode, at ambient conditions (˜23° C. and ˜100 kPa) using monochromatic CuKα1 radiation (1.54056 Å) in the 2Θ region between 4° and 45°, with an exposure time of 90 s for each frame and 0.016° increments. No additional corrections were made during data collection.

Stability to exposure to water / hydrate formation (XRPD) [1]: resistant to hydrate formation
Compound: C=C1CC[C@H]2[C@H](CN)[C@@H]([C@@]3(C)CC[C@H](O)C[C@@H]3CO)CC[C@]12C.CC(=O)O [Compound 1 Form A, acetate salt of (1S,3S,4R)-4-((3aS,4R,5S,7aS)-4-(aminomethyl)-7a-methyl-1-methyleneoctahydro-1H-inden-5-yl)-3-(hydroxymethyl)-4-methylcyclohexanol]
Solid form stability after accelerated aging (XRPD diffractogram versus FIG. 2) [2]: equivalent to FIG. 2; also recorded: without converting to another form
